Source: PMC7016953 (Cells, 2020)
Read-outs that look alike come from different tables or passages of the source.

What was measured:
[1] = target: T1, TRPC3 (Homo sapiens, UniProt Q13507); assay: Outside-out patch recordings from HEK TRPC3-YFP cells; format: cell-based; conditions: 50 µM, outside-out patches, −100 mV, n = 6
T1 construct: expressed in transfected cells
T1 sequence (Q13507 1-848 isoform Q13507-3): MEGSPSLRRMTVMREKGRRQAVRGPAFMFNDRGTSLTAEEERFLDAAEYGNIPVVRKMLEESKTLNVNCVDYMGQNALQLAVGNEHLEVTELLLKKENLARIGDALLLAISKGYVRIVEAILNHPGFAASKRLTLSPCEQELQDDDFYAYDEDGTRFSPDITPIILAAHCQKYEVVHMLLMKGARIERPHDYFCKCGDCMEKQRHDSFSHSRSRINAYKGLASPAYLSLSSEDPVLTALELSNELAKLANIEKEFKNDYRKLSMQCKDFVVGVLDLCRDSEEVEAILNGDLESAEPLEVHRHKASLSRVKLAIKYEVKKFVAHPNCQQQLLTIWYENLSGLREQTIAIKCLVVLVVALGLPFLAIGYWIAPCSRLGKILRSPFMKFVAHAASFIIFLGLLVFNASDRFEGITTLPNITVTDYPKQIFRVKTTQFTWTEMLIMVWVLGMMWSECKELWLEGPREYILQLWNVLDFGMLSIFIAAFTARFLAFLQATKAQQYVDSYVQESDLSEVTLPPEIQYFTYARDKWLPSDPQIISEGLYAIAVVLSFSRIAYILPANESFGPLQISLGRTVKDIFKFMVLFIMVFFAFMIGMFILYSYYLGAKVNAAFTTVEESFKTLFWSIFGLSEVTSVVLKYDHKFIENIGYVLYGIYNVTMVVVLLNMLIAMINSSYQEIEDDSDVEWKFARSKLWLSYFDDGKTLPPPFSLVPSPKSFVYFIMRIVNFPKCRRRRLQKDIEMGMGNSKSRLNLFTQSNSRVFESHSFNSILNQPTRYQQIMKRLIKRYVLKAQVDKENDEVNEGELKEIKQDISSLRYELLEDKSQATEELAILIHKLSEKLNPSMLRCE
Protocol: The recordings of TRPC3, TRPC6, or TRPC7 membrane currents in HEK293 or PC12 cells were realized by using a Multiclamp 700B amplifier with a Digidata 1440A digitizer controlled by the PClamp 10 software (all Molecular Devices, Sunnyvale, CA, U.S.A.). Recordings were obtained at room temperature either in the whole-cell or in an outside-out configuration as indicated. Cells were seeded as described above, but at lower density, mounted in a chamber (Warner Instruments, Hamden, CT; U.S.A.), placed onto the stage of an inverted microscope, and perfused with required solution. The standard extracellular solution contained 140 mM NaCl, 5 mM CsCl, 2 mM MgCl2, 1 mM CaCl2, 10 mM HEPES, and 0.035% BSA adjusted to pH 7.4 with NaOH. The composition of standard intracellular solution was 140 mM CsCl, 1 mM MgCl2, 5 mM EGTA, and 10 mM HEPES adjusted to pH 7.25 with CsOH; the osmolarity was 295 mOsm l^−1. In outside-out measurements, the pipette solution contained 5 mM EGTA and 1.1 mM CaCl2 to achieve a calculated free Ca^2+ concentration of 100 nM. […]
Outside-out patches were obtained from HEKTRPC3-YFP cells, and ionic currents were continuously recorded at a patch potential of –100 mV. […] (B) The open probability (Po) for the unknown number N of channels in the patch of the experiment shown in (A) was calculated over 2 s bins and plotted at the same time scale.

[2] = target: T1, TRPC3; assay: Whole-cell patch-clamp recordings in HEK TRPC3-YFP cells; format: cell-based; conditions: for EC50: n = 12–27 cells
Protocol: The recordings of TRPC3, TRPC6, or TRPC7 membrane currents in HEK293 or PC12 cells were realized by using a Multiclamp 700B amplifier with a Digidata 1440A digitizer controlled by the PClamp 10 software (all Molecular Devices, Sunnyvale, CA, U.S.A.). Recordings were obtained at room temperature either in the whole-cell or in an outside-out configuration as indicated. Cells were seeded as described above, but at lower density, mounted in a chamber (Warner Instruments, Hamden, CT; U.S.A.), placed onto the stage of an inverted microscope, and perfused with required solution. The standard extracellular solution contained 140 mM NaCl, 5 mM CsCl, 2 mM MgCl2, 1 mM CaCl2, 10 mM HEPES, and 0.035% BSA adjusted to pH 7.4 with NaOH. The composition of standard intracellular solution was 140 mM CsCl, 1 mM MgCl2, 5 mM EGTA, and 10 mM HEPES adjusted to pH 7.25 with CsOH; the osmolarity was 295 mOsm l^−1. In outside-out measurements, the pipette solution contained 5 mM EGTA and 1.1 mM CaCl2 to achieve a calculated free Ca^2+ concentration of 100 nM.
Patch pipettes were pulled from borosilicate glass capillaries BG150F-8P (Science Products, Hofheim, Germany) with a PIP6 pipette puller (HEKA Elektronik, Lambrecht, Germany). […] In all whole-cell measurements, the series resistance was lower than 13 MΩ, and compensated by 70%. If the access was unstable during the experiment (increase in series resistance by more than 15% at the end of the experiment), the cell was omitted from the analysis. To record current/voltage (I/V) curves, voltage ramps (400 mV s^−1) ranging from –100 to +100 mV were applied. Currents were filtered at 3 kHz with a four-pole Bessel filter and sampled at 10 kHz.
Figure 4 Electrophysiological analysis of artemisinin-induced whole-cell currents in HEKTRPC3-YFP cells. The voltage protocol depicted in the box (duration of 0.8 s) was applied in 1 s intervals, and steady state inward and outward current densities averaged at potentials of –100 or +100 mV as well as voltage ramps (0.4 Vs^−1) were extracted from the data. (A) Current densities at +100 and –100 mV, respectively.

increase in the open probability [1]: about 5.5 fold
Hill coefficient, outward currents ([2]; +100 mV): 2.2
EC50 ([2]; +100 mV, read-out: EC50 to activate TRPC3 outward currents): 33 µM
Hill coefficient, inward currents ([2]; −100 mV): 2.4
EC50 ([2]; −100 mV, read-out: EC50 to activate TRPC3 inward currents): 25 µM
Compound: C[C@@H]1CC[C@H]2[C@@H](C)C(=O)O[C@@H]3O[C@@]4(C)CC[C@@H]1[C@]32OO4 [artemisinin]
